# Assay results taken from patent publication US11427548B2 (Arvinas Operations, Inc., priority 2015, dated 2022).
# Where two headings read alike, the source gives them in different places.
# Target: T1, Androgen Receptor (Homo sapiens, UniProt P10275)
# T1 construct: endogenous in cells; host or cells: VCaP cells
# T1 sequence (P10275 1-920): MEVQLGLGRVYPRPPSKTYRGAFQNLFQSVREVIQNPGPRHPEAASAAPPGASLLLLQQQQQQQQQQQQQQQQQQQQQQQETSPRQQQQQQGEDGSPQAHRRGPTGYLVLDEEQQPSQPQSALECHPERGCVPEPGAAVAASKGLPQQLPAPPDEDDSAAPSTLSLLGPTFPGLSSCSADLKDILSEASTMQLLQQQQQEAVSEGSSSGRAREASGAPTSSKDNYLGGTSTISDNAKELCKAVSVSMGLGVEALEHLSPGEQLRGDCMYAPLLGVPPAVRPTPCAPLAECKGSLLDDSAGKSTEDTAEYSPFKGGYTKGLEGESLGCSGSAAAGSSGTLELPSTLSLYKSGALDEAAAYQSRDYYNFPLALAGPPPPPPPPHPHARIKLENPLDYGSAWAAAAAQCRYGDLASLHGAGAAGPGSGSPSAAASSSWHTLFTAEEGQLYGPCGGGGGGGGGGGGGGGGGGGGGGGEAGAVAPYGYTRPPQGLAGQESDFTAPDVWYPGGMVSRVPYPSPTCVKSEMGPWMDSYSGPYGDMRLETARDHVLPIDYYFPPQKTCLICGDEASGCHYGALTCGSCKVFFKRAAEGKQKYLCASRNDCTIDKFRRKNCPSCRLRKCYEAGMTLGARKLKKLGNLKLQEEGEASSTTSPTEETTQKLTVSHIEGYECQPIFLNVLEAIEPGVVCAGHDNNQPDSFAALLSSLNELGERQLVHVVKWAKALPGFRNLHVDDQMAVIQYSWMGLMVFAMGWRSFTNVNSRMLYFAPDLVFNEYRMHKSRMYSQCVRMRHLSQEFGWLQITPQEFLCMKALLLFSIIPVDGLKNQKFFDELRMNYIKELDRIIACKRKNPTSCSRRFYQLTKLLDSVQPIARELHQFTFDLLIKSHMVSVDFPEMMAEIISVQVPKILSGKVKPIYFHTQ
# Experiment: Androgen Receptor ELISA assay (PathScan AR ELISA) in VCaP cells: AR degradation, Dmax and DC50
# Type: cell-based
# Procedure, shortened: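 VCaP cells in phenol red-free RPMI with 5% charcoal-stripped FBS were grown at least 3 days, then given compound as 7 half-log doses in 0.1% DMSO with 0.1 nM R1881 for 24 h. Lysates went into a sandwich AR ELISA with TMB read at 450 nm.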
# [1] = read-out: VCaP DC50; VCaP cells; Table 36
# [2] = VCaP cells; Table 36; read-out: VCaP DC50
# [3] = VCaP, VCaP cells; Table 36; read-out: VCaP Dmax (%)
DC50 [2],Dmax [3],Structure (SMILES),"Dmax (VCaP, read-out: VCaP Dmax (%))",DC50 [1]
< 50 nM,51 to 70%,"Cc1ncsc1-c1ccc([C@H](C)NC(=O)[C@@H]2C[C@@H](O)CN2C(=O)C(c2cc(CCN3CCN(c4ccc(C(=O)N[C@H]5C(C)(C)[C@H](Oc6ccc(C#N)c(Cl)c6)C5(C)C)cn4)CC3)no2)C(C)C)cc1 (stereo partly drawn) [Example 838, N-((1r,3r)-3-(3-chloro-4-cyanophenoxy)-2,2,4,4-tetramethylcyclobutyl)-6-(4-(2-(5-(1-((2S,4R)-4-hydroxy-2-(((S)-1-(4-(4-methylthiazol-5-yl)phenyl)ethyl)carbamoyl)pyrrolidin-1-yl)-3-methyl-1-oxobutan-2-yl)isoxazol-3-yl)ethyl)piperazin-1-yl) nicotinamide]",–,–
< 50 nM,26 to 50%,"Cc1ncsc1-c1ccc([C@H](C)NC(=O)[C@@H]2C[C@@H](O)CN2C(=O)[C@@H](NC(=O)COC2CN(CCNc3ccc(C(=O)N[C@H]4C(C)(C)[C@H](Oc5ccc(C#N)c(Cl)c5)C4(C)C)cn3)C2)C(C)(C)C)cc1 [Example 842, N-((1r,3r)-3-(3-chloro-4-cyanophenoxy)-2,2,4,4-tetramethylcyclobutyl)-6-((2-(3-(2-(((S)-1-((2S,4R)-4-hydroxy-2-(((S)-1-(4-(4-methylthiazol-5-yl)phenyl)ethyl)carbamoyl)pyrrolidin-1-yl)-3,3-dimethyl-1-oxobutan-2-yl)amino)-2-oxoethoxy)azetidin-1-yl)ethyl)amino) nicotinamide]",–,–
< 50 nM,51 to 70%,"Cc1ncsc1-c1ccc([C@H](C)NC(=O)C2C[C@@H](O)CN2C(=O)C(NC(=O)CN2CCN(CCN3CCN(c4ccc(C(=O)NC5C(C)(C)C(Oc6ccc(C#N)c(Cl)c6)C5(C)C)cn4)C[C@H]3CO)CC2)C(C)(C)C)cc1 (stereo partly drawn) [Example 843, N-((1r,3S)-3-(3-chloro-4-cyanophenoxy)-2,2,4,4-tetramethylcyclobutyl)-6-((S)-4-(2-(4-(2-(((S)-1-((2S,4R)-4-hydroxy-2-(((S)-1-(4-(4-methylthiazol-5-yl)phenyl)ethyl)carbamoyl)pyrrolidin-1-yl)-3,3-dimethyl-1-oxobutan-2-yl)amino)-2-oxoethyl)piperazin-1-yl)ethyl)-3-(hydroxymethyl)piperazin-1-yl) nicotinamide]",–,–
< 50 nM,> 71%,"Cc1ncsc1-c1ccc([C@H](C)NC(=O)[C@@H]2C[C@@H](O)CN2C(=O)[C@@H](NC(=O)CO[C@H]2C[C@@H](N3CCN(c4ccc(C(=O)N[C@H]5C(C)(C)[C@H](Oc6ccc(C#N)c(Cl)c6)C5(C)C)cn4)CC3)C2)C(C)(C)C)cc1 [Example 845, N-((1r,3R)-3-(3-chloro-4-cyanophenoxy)-2,2,4,4-tetramethylcyclobutyl)-6-(4-((1R,3S)-3-(2-(((S)-1-((2S,4R)-4-hydroxy-2-(((S)-1-(4-(4-methylthiazol-5-yl)phenyl)ethyl)carbamoyl)pyrrolidin-1-yl)-3,3-dimethyl-1-oxobutan-2-yl)amino)-2-oxoethoxy)cyclobutyl)piperazin-1-yl)nicotinamide]",–,–
< 50 nM,> 71%,"Cc1ncsc1-c1ccc([C@H](C)NC(=O)[C@@H]2C[C@@H](O)CN2C(=O)[C@@H](NC(=O)COC2CC(N3CCN(c4ccc(C(=O)NC5C(C)(C)C(Oc6ccc(C#N)c(Cl)c6)C5(C)C)cn4)CC3)C2)C(C)(C)C)cc1 (stereo partly drawn) [Example 846, N-((1r,3R)-3-(3-chloro-4-cyanophenoxy)-2,2,4,4-tetramethylcyclobutyl)-6-(4-((1S,3R)-3-(2-(((S)-1-((2S,4R)-4-hydroxy-2-(((S)-1-(4-(4-methylthiazol-5-yl)phenyl)ethyl)carbamoyl)pyrrolidin-1-yl)-3,3-dimethyl-1-oxobutan-2-yl)amino)-2-oxoethoxy)cyclobutyl)piperazin-1-yl)nicotinamide]",–,–

# Second part, the molecule before the results:
Structure (SMILES),DC50 [2],Dmax [3],"Dmax (VCaP, read-out: VCaP Dmax (%))",DC50 [1]
"Cc1ncsc1-c1ccc([C@H](C)NC(=O)C2C[C@@H](O)CN2C(=O)C(NC(=O)CN2C3CCC2CN(CCCCc2ccc(C(=O)N[C@H]4C(C)(C)[C@H](Oc5ccc(C#N)c(Cl)c5)C4(C)C)cc2)C3)C(C)(C)C)cc1 (stereo partly drawn) [Example 835, (2S,4R)-1-((2S)-2-(2-(3-(4-(4-(((1r,3r)-3-(3-chloro-4-cyanophenoxy)-2,2,4,4-tetramethylcyclobutyl)carbamoyl)phenyl)butyl)-3,8-diazabicyclo[3.2.1]octan-8-yl)acetamido)-3,3-dimethylbutanoyl)-4-hydroxy-N-((S)-1-(4-(4-methylthiazol-5-yl)phenyl)ethyl) pyrrolidine-2-carboxamide]",–,–,> 71%,< 50 nM
"Cc1ncsc1-c1ccc([C@H](CO)NC(=O)[C@@H]2C[C@@H](O)CN2C(=O)[C@@H](NC(=O)CN2C3CCC2CN(CCCCc2ccc(C(=O)N[C@H]4C(C)(C)[C@H](Oc5ccc(C#N)c(Cl)c5)C4(C)C)cc2)C3)C(C)(C)C)cc1 [Example 836, (2S,4R)-1-((2S)-2-(2-(3-(4-(4-(((1r,3r)-3-(3-chloro-4-cyanophenoxy)-2,2,4,4-tetramethylcyclobutyl)carbamoyl)phenyl)butyl)-3,8-diazabicyclo[3.2.1]octan-8-yl)acetamido)-3,3-dimethylbutanoyl)-4-hydroxy-N-((R)-2-hydroxy-1-(4-(4-methylthiazol-5-yl)phenyl)ethyl) pyrrolidine-2-carboxamide]",–,–,> 71%,< 50 nM
"Cc1ncsc1-c1ccc([C@H](C)NC(=O)[C@@H]2C[C@@H](O)CN2C(=O)[C@@H](NC(=O)CN2CCN(CCCc3ccc(C(=O)N[C@H]4C(C)(C)[C@H](Oc5ccc(C#N)c(Cl)c5)C4(C)C)cn3)CC2)C(C)(C)C)cc1 [Example 837, N-((1r,3r)-3-(3-chloro-4-cyanophenoxy)-2,2,4,4-tetramethylcyclobutyl)-6-(3-(4-(2-(((S)-1-((2S, 4R)-4-hydroxy-2-(((S)-1-(4-(4-methylthiazol-5-yl)phenyl)ethyl)carbamoyl)pyrrolidin-1-yl)-3,3-dimethyl-1-oxobutan-2-yl)amino)-2-oxoethyl)piperazin-1-yl)propyl) nicotinamide]",< 50 nM,> 71%,–,–
"Cc1ncsc1-c1ccc([C@H](C)NC(=O)[C@@H]2C[C@@H](O)CN2C(=O)[C@@H](NC(=O)CN2C3CCC2CN(CCCc2ccc(C(=O)N[C@H]4C(C)(C)[C@H](Oc5ccc(C#N)c(Cl)c5)C4(C)C)cn2)C3)C(C)(C)C)cc1 [Example 839, N-((1r,3r)-3-(3-chloro-4-cyanophenoxy)-2,2,4,4-tetramethylcyclobutyl)-6-(3-(8-(2-(((S)-1-((2S, 4R)-4-hydroxy-2-(((S)-1-(4-(4-methylthiazol-5-yl)phenyl)ethyl)carbamoyl)pyrrolidin-1-yl)-3,3-dimethyl-1-oxobutan-2-yl)amino)-2-oxoethyl)-3,8-diazabicyclo[3.2.1]octan-3-yl)propyl) nicotinamide]",–,–,51 to 70%,< 50 nM
"Cc1ncsc1-c1ccc([C@H](C)NC(=O)C2C[C@@H](O)CN2C(=O)C(NC(=O)CN2C3CCC2CN(CCCCc2ccc(C(=O)N[C@H]4C(C)(C)[C@H](Oc5ccc(C#N)c(Cl)c5)C4(C)C)cn2)C3)C(C)(C)C)cc1 (stereo partly drawn) [Example 840, N-((1r,3r)-3-(3-chloro-4-cyanophenoxy)-2,2,4,4-tetramethylcyclobutyl)-6-(4-(8-(2-(((S)-1-((2S, 4R)-4-hydroxy-2-(((S)-1-(4-(4-methylthiazol-5-yl)phenyl)ethyl)carbamoyl)pyrrolidin-1-yl)-3,3-dimethyl-1-oxobutan-2-yl)amino)-2-oxoethyl)-3,8-diazabicyclo[3.2.1]octan-3-yl)butyl) nicotinamide]",–,–,> 71%,< 50 nM
"Cc1ncsc1-c1ccc([C@H](CO)NC(=O)[C@@H]2C[C@@H](O)CN2C(=O)[C@@H](NC(=O)CN2CCN(CCC3CCN(c4ccc(C(=O)N[C@H]5C(C)(C)[C@H](Oc6ccc(C#N)c(Cl)c6)C5(C)C)cn4)C3)CC2)C(C)(C)C)cc1 (stereo partly drawn) [Example 841, N-((1r,3r)-3-(3-chloro-4-cyanophenoxy)-2,2,4,4-tetramethylcyclobutyl)-6-(3-(2-(4-(2-(((S)-1-((2S,4R)-4-hydroxy-2-(((R)-2-hydroxy-1-(4-(4-methylthiazol-5-yl)phenyl)ethyl)carbamoyl)pyrrolidin-1-yl)-3,3-dimethyl-1-oxobutan-2-yl)amino)-2-oxoethyl)piperazin-1-yl)ethyl)pyrrolidin-1-yl)nicotinamide]",< 50 nM,–,> 71%,–
